The text below walks through data of ChEMBL document CHEMBL5126565, “Discovery of (2-phenylthiazol-4-yl)urea derivatives that induce neuronal differentiation from mesenchymal stem cells” (Bioorg Med Chem Lett, 2022).

Activity calls are given as the source filed them. The rule behind the calls is not given here.

Data set [1] in a line: Solubility of compound in culture media. Format: physicochemical.
In data set [2] the test system is Mesenchymal stem cells. The experiment in a line: Cytotoxicity against human derived mesenchymal stem cells assessed as cell viability upto 20 uM measured after 4 days. Format: toxicity, cell-based. Particulars: 96 h, time 4 day.
Data set [3] has as its system Mesenchymal stem cells. In words: Effect on cell cycle progression in human derived mesenchymal stem cells upto 20 uM measured after 4 days. Format: toxicity, cell-based. Particulars: 96 h, time 4 day.
The subject of data set [4] is Mesenchymal stem cells. In words: Induction of neural differentiation in human derived mesenchymal stem cells assessed as neuron formation measured TuJI expression by immunohistochemical analysis. Format: functional, cell-based. To be noted: dose 2-5 µM.
The nature of data set [5]: Induction of neural differentiation in human derived mesenchymal stem cells assessed as neuron formation at 5 uM measured TuJI expression by immunohistochemical analysis relative to control. Format: functional.

`CN1CCN(C(=O)NCc2csc(-c3ccccc3)n2)CC1`: the solubility entry in data set [1] is given as “Soluble”. Further, the Activity entry in the data set with Mesenchymal stem cells [2] and in the data set on Mesenchymal stem cells [3] was “Non-Toxic” throughout. In addition, the result in the data set on Mesenchymal stem cells [4] was Active.

For `O=C(NCc1csc(-c2ccccc2)n1)N1CCOCC1`, the solubility result in data set [1] is given as “Soluble”. In addition, the Activity entry in the data set on Mesenchymal stem cells [2] is “Non-Toxic”; with Mesenchymal stem cells [3], “Non-Toxic”; in the data set on Mesenchymal stem cells [4] (DDE = dose-dependent effect), “Dde”. The “fold change (FC)” value in data set [5] is recorded as 2.
